In ChEMBL document CHEMBL4680264, “Progress toward a Glycoprotein VI Modulator for the Treatment of Thrombosis” (J Med Chem, 2020):

Assays:
[1] = Inhibition of ADP-stimulated human platelet aggregation assessed as ADP light transmission at 50 uM preincubated for 5 min followed by ADP stimulation by light transmission aggregometry (reference value: 62 +/- 3%); assay type: functional; design: scale not given: the % may be the effect or the level left
[2] = target: T1, Thromboxane A2 receptor (Homo sapiens) (UniProt P21731); assay: Modulation of TxA2 receptor in human platelet suspension assessed as lowest concentration that reduced U46619-induced platelet aggregation preincubated for 5 min followed by U46619 stimulation by light transmission aggregometry; assay type: tissue-based; details: filed as modulator
T1 sequence (whole entry): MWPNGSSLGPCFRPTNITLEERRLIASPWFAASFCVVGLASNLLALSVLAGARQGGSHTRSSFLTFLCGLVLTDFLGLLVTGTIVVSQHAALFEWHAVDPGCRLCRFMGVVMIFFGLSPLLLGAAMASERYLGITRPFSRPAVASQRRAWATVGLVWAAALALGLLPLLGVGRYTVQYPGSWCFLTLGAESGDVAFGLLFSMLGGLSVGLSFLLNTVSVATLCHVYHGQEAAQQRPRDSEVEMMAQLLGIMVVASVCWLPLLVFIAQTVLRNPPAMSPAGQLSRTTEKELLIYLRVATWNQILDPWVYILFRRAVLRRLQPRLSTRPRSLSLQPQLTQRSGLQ

Platelet glycoprotein VI [3] = target: T2, Platelet glycoprotein VI (Homo sapiens, UniProt Q9HCN6); assay: Binding affinity to recombinant GP6 (unknown origin) at protein to compound ratio of 1 : 1 to 1 : 10 by 2D 15N-1H TROSY-HSQC NMR spectroscopy
T2 sequence (Q9HCN6 whole entry): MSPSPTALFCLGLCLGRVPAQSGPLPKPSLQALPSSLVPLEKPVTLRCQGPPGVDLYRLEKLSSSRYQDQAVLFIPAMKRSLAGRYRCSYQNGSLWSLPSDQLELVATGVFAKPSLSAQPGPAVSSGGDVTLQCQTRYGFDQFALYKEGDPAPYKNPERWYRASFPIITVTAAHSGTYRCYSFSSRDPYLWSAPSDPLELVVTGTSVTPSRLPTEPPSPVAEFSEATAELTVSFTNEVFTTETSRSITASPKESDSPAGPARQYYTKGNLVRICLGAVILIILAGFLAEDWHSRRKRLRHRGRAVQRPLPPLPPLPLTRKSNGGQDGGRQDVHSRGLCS

[4] = Modulation of GP6 in porcine platelet-rich plasma assessed as reduction in convulxin-induced platelet aggregation; assay type: tissue-based; details: Sus scrofa
Platelet glycoprotein VI [5] = target: T2, Platelet glycoprotein VI; assay: Modulation of GP6 in human platelets assessed as reduction in convulxin-induced P-selectin expression preincubated for 20 mins followed by convulxin stimulation and measured after 1 min by Western blot analysis; assay type: tissue-based
[6] = Modulation of GP6/FcRgamma in human platelet-rich plasma assessed as reduction in convulxin-induced platelet aggregation
[7] = Inhibition of collagen-induced human platelet aggregation preincubated for 20 mins followed by collagen stimulation and measured for 10 mins by aggregometry; assay type: functional, tissue-based
[8] = Inhibition of collagen-induced platelet aggregation in human platelet suspension preincubated for 10 mins followed by collagen stimulation by light transmission-based assay; assay type: functional, tissue-based
[9] = target: T3, Platelet glycoprotein VI (Homo sapiens) (UniProt Q9HCN6); details: Plasma, filed as modulator, time 15.0 min
T3 sequence (whole entry): T2 sequence (Q9HCN6 whole entry)

[10] = Antagonist activity at GP6 in human platelet assessed as reduction in CRP-induced platelet-aggregation preincubated for 60 secs followed by […] by light transmission aggregometry
Platelet glycoprotein VI [11] = target: T2, Platelet glycoprotein VI; assay: Binding affinity to human platelet lysate GP6 at 0.1 uM by surface plasmon resonance analysis; assay type: subcellular
[12] = Inhibition of PAF-induced platelet aggregation in rabbit platelet suspension preincubated for 10 mins followed by PAF stimulation by turbidimetric method; assay type: functional, tissue-based; details: Oryctolagus cuniculus
[13] = Inhibition of arachidonic acid-induced platelet aggregation in rabbit platelet suspension preincubated for 10 mins followed by AA stimulation by turbidimetric method; assay type: functional, tissue-based; details: Oryctolagus cuniculus
[14] = Inhibition of ADP-induced platelet aggregation in rabbit platelet suspension preincubated for 10 mins followed by ADP stimulation by turbidimetric method; assay type: functional, tissue-based; details: Oryctolagus cuniculus
[15] = Inhibition of collagen-induced platelet aggregation in human platelet suspension preincubated for 3 mins followed by collagen stimulation and measured after 6 mins by lumi-aggregometry; assay type: functional, tissue-based
Platelet glycoprotein VI [16] = target: T2, Platelet glycoprotein VI; assay: Binding affinity to human platelet lysate GP6 at 100 uM by surface plasmon resonance analysis; assay type: subcellular
[17] = Inhibition of human platelet lamellipodia formation on CRP-XL 1 umol/L preincubated for 4 mins followed by CRP-XL addition and measured after 45 mins (reference value: 69%); assay type: functional; details: dose 1 µmol/L, time 49 min, at 1 µM
[18] = Inhibition of human platelet adhesion to immobilised CRP-XL at 1 umol/L preincubated for 4 mins followed by CRP-XL addition and measured after 45 mins relative to control; assay type: functional; details: 49 min, dose 1 µmol/L
[19] = target: T1, Thromboxane A2 receptor (Homo sapiens); assay: Inhibition of [3H]-U46619 binding to TxA2 receptor in human platelet suspension at 0.3 uM incubated for 30 mins by liquid scintillation counting method relative to control; assay type: tissue-based
[20] = target: T1, Thromboxane A2 receptor (Homo sapiens); assay: Inhibition of [3H]-U46619 binding to TxA2 receptor in human platelet suspension at 0.7 uM incubated for 30 mins by liquid scintillation counting method relative to control; assay type: tissue-based
[21] = Inhibition of arachidonic acid-induced platelet aggregation in human platelet suspension preincubated for 3 mins followed by […] and measured after 6 mins by lumi-aggregometry; assay type: functional, tissue-based
[22] = Inhibition of ADP-induced platelet aggregation in human platelet suspension preincubated for 3 mins followed by […] and measured after 6 mins by lumi-aggregometry; assay type: functional, tissue-based

`CCOc1nc2cccc(C(=O)O)c2n1Cc1ccc(-c2ccccc2-c2nnn[nH]2)cc1` showed an Activity [1] of 60%.
Molecule `CCCc1nc2c(C)cc(-c3nc4ccccc4n3C)cc2n1Cc1ccc(-c2ccccc2C(=O)O)cc1` has an MEC [2] of 5 µM and an Activity [1] of 48%.
`CCCCC(=O)N(Cc1ccc(-c2ccccc2-c2nnn[nH]2)cc1)[C@H](C(=O)O)C(C)C` gave an MEC [2] of 50 µM, an Activity [1] of 53% and a Kd (Platelet glycoprotein VI [3]) of 100 µM.
`Cc1cccc(Nc2nc(N[C@@H]3CCCC[C@@H]3N)ncc2C(N)=O)c1` gave an IC50 [4] of 0.35 µM, an IC50 (Platelet glycoprotein VI [5]) of 0.048 µM and an IC50 [6] of 2.5 µM.
Molecule `Cc1ccccc1-c1nn[nH]n1` has a Kd (Platelet glycoprotein VI [3]) of 1100 µM.
`C/C(O)=C(\C#N)C(=O)Nc1cc(Br)ccc1Br` gave an IC50 [7] of 2.8 µM.
Molecule `O=C(O)c1ccccc1-c1ccccc1` has a Kd (Platelet glycoprotein VI [3]) of 1500 µM.
For `c1ccc(-c2ccccc2-c2nn[nH]n2)cc1`, the Kd (Platelet glycoprotein VI [3]) was 360 µM.
Work on `c1ccc(CCCCOc2ccc(-c3ccccc3-c3nn[nH]n3)cc2)cc1` yielded a Kd (Platelet glycoprotein VI [3]) of 850 µM.
Molecule `c1ccc(-c2cccc(-c3nn[nH]n3)c2)cc1` has a Kd (Platelet glycoprotein VI [3]) of 80 µM.
`c1ccc(CCOc2ccc(-c3ccccc3-c3nn[nH]n3)cc2)cc1` showed a Kd (Platelet glycoprotein VI [3]) of 52 µM.
In the case of `O=C(O)Cc1cccc(OCCCN(Cc2cccc(C(F)(F)F)c2Cl)CC(c2ccccc2)c2ccccc2)c1`, the IC50 [8] is reported as 0.03 µM.
For `CCCCc1nc(Cl)c(C=O)n1Cc1ccc(-c2ccccc2-c2nn[nH]n2)cc1`, the MEC [9] was 500 µM.
Molecule `CN(C)CCCSc1ccccc1NC(=O)/C=C/c1ccccc1` [CINANSERIN] has an IC50 [10] of 35 µM.
Work on `NCCCC(=O)O` [GAMMA-AMINOBUTYRIC ACID] yielded a Kd (Platelet glycoprotein VI [11]) of 0.0411 µM.
In the case of `C=C1C(=O)[C@@]23[C@H](O)C[C@@H]4C(C)(C)C(=O)CC[C@@]4(C)[C@@H]2CC[C@@H]1[C@H]3O` [GLAUCOCALYXIN A], the IC50 [12] is reported as 13.7 µM, the IC50 [13] is reported as 14.1 µM and the IC50 [14] is reported as 4.4 µM.
In the case of `C=CCc1ccc(O)c(-c2ccc(O)c(CC=C)c2)c1` [HONOKIOL], the IC50 [15] is reported as 0.6 µM and the Kd (Platelet glycoprotein VI [16]) is reported as 289 µM.
With `C=CC(=O)N1CCC[C@@H](n2nc(-c3ccc(Oc4ccccc4)cc3)c3c(N)ncnc32)C1` [IBRUTINIB] the “inhibition (INH)” value [17] was 11% and the inhibition at 1 µM [18] was 70%.
In the case of `CCCCC1=NC2(CCCC2)C(=O)N1Cc1ccc(-c2ccccc2-c2nnn[nH]2)cc1` [IRBESARTAN], the MEC [2] is reported as 0.5 µM, the Activity [1] is reported as 38% and the inhibition [19] is reported as 50%.
`CCCCc1nc(Cl)c(CO)n1Cc1ccc(-c2ccccc2-c2nnn[nH]2)cc1` [LOSARTAN] showed an MEC [9] of 500 µM, an inhibition [20] of 50% and an MEC [2] of 0.5 µM. It also gave an Activity [1] of 39%.
In the case of `CC(C)=CCC/C(C)=C/C=C/C(C)=C/C=C/C(C)=C/C=C/C=C(C)/C=C/C=C(C)/C=C/C=C(\C)CCC=C(C)C` [LYCOPENE], the IC50 [21] is reported as 6.8 µM, the IC50 [22] is reported as 6.2 µM and the IC50 [15] is reported as 5.8 µM.
With `CCCc1nc(C(C)(C)O)c(C(=O)O)n1Cc1ccc(-c2ccccc2-c2nnn[nH]2)cc1` [OLMESARTAN] the Kd (Platelet glycoprotein VI [3]) was 300 µM.
For `O=S(=O)(c1ccccc1)N(CC(F)(F)F)c1ccc(C(O)(C(F)(F)F)C(F)(F)F)cc1` [T091317], the IC50 [8] was > 0.05 µM.
Molecule H-YSDTDWLYFSTS-OH has a Kd (Platelet glycoprotein VI [3]) of 57 µM.
